The record followed here is ChEMBL document CHEMBL5036348, “Identification and evaluation of 4-anilinoquin(az)olines as potent inhibitors of both dengue virus (DENV) and Venezuelan equine encephalitis virus (VEEV)” (Bioorg Med Chem Lett, 2021).

In one series the test system is dengue virus type 2. Briefly: Antiviral activity against DENV2 New Guinea C strain infected in human Huh7 cells assessed as reduction in viral infection measured after 48 hrs post infection by renilla luciferase assay relative to control. It counts as functional, organism-based. The conditions noted are these: Huh-7, 48 h.
Series [1] can be described thus: Cytotoxicity against Venezuelan equine encephalitis virus TC-83 strain infected human U-87 MG cells assessed as reduction in cell viability by alamar blue assay. It counts as cell-based, U-87MG ATCC.
Series [2] relates to Venezuelan equine encephalitis virus. In words: Antiviral activity against Venezuelan equine encephalitis virus TC-83 strain infected in human U-87 MG cells assessed as reduction in viral infection measured after 18 hrs post infection by Nano luciferase assay relative to control. It counts as functional, organism-based. The conditions noted are these: TC-83, U-87 MG.
Series [3] is described as follows: Cytotoxicity against DENV infected human Huh-7 cells assessed as reduction in cell viability by alamar blue assay. To be noted: DENV-infected Huh-7 cells. It counts as cell-based. On the technique in general: The colour change of resazurin is a common sign of viable cells or microbes.

Structures are written as SMILES. pEC50: −log10 of the molar value.

The term pEC50 denotes −log10 of the EC50, conventionally taken in molar units. For orientation: CC50 means the concentration at which the toxic effect on the cells reaches its halfway point. Regarding `C#Cc1cccc(Nc2ccnc3cc(OC)c(OC)cc23)c1`, the results for the negative-log EC50 (pEC50) (with dengue virus type 2; in series [2]) were 5.07 and 5.12, respectively. Further, the CC50 in series [1] and in series [3] was > 10 µM in each case.

Take `COc1cc(Nc2ncnc3ccc(C(F)(F)F)cc23)cc(OC)c1OC`: the negative-log EC50 (pEC50) (in the series with dengue virus type 2; in series [2]) was < 5.00 in each case. The CC50 in series [1] and in series [3] was > 10 µM in each case.

With `COc1cccc(Nc2ccnc3ccc(C(F)(F)F)cc23)c1`, the pEC50 in the series on dengue virus type 2 is 6.09; in series [2], 5.26. The 50% cytotoxic concentration (CC50) in series [1] and in series [3] was > 10 µM in each case.

Consider `N#Cc1ccccc1Nc1ccnc2ccc(C(F)(F)F)cc12`, for which the negative-log EC50 (pEC50) (in the series on dengue virus type 2; in series [2]) was < 5.00 throughout. Besides, the CC50 in series [1] and in series [3] was > 10 µM throughout.

As for `FC(F)(F)c1ccc2nccc(Nc3ccc(Br)cc3)c2c1`, the pEC50 is 5.39 in the series with dengue virus type 2 and 5.20 in series [2]. For the same compound, the 50% cytotoxic concentration (CC50) in series [1] and in series [3] was > 10 µM in each case.

`COc1cc(Nc2ccnc3ccc(C(F)(F)F)cc23)cc(OC)c1`: the results for the negative logarithm of the EC50 (pEC50) (in the series with dengue virus type 2; in series [2]) were 5.89 and 5.68, respectively. The CC50 in series [1] and in series [3] was > 10 µM each time.

Take `COc1ccc(Nc2ccnc3ccc(C(F)(F)F)cc23)cc1OC`: the pEC50 in the series on dengue virus type 2 is 5.05; in series [2], < 5.00. Besides, the CC50 in series [1] and in series [3] was > 10 µM in each case.

Regarding `FC(F)(F)c1ccc2nccc(Nc3ccc4c(c3)OCCO4)c2c1`, the pEC50 (in the series on dengue virus type 2; in series [2]) was < 5.00 each time. Moreover, the CC50 in series [1] and in series [3] was > 10 µM throughout.

In the case of `FC(F)(F)c1ccc2nccc(Nc3ccc4c(c3)OCO4)c2c1`, the pEC50 is 5.39 in the series on dengue virus type 2 and 5.82 in series [2]. Further, the CC50 in series [1] and in series [3] was > 10 µM throughout.

For the compound `COc1ccccc1Nc1ccnc2ccc(C(F)(F)F)cc12`, the values for the negative logarithm of the EC50 (pEC50) (in the series with dengue virus type 2; in series [2]) were < 5.00 and 5.60, respectively. The CC50 in series [1] and in series [3] was > 10 µM in each case.

For `FC(F)(F)c1ccc2nccc(Nc3ccc(Cl)c(Cl)c3)c2c1`, the negative-log EC50 (pEC50) is 5.48 with dengue virus type 2 and 6.30 in series [2]. Besides, the CC50 in series [1] and in series [3] was > 10 µM each time.

Turning to `CS(=O)(=O)c1ccc(Nc2ccnc3ccc(C(F)(F)F)cc23)cc1`, the pEC50 in the series with dengue virus type 2 is 5.21; in series [2], < 5.00. The CC50 in series [1] and in series [3] was > 10 µM throughout.

As to `Fc1cc(Nc2ccnc3ccc(C(F)(F)F)cc23)cc(F)c1F`, the pEC50 (with dengue virus type 2; in series [2]) was < 5.00 in each case. The cytotoxic concentration (CC50) in series [1] and in series [3] was > 10 µM in each case.

On to `FC(F)(F)c1cccc(Nc2ccnc3ccc(C(F)(F)F)cc23)c1`, for which the pEC50 with dengue virus type 2 is 5.24; in series [2], 5.32. The cytotoxic concentration (CC50) in series [1] and in series [3] was > 10 µM in each case.

For `CC(=O)c1cccc(Nc2ccnc3ccc(C(F)(F)F)cc23)c1`, the values for the pEC50 (with dengue virus type 2; in series [2]) were 5.17 and < 5.00, respectively. Also, the cytotoxic concentration (CC50) in series [1] and in series [3] was > 10 µM in each case.

As to `C#Cc1cccc(Nc2ccnc3ccc(C(F)(F)F)cc23)c1`, the results for the negative logarithm of the EC50 (pEC50) (with dengue virus type 2; in series [2]) were 5.42 and 5.60, respectively. The CC50 in series [1] and in series [3] was > 10 µM in each case.

As to `FC(F)(F)c1ccc2nccc(Nc3ccccc3Br)c2c1`, the negative-log EC50 (pEC50) (in the series with dengue virus type 2; in series [2]) was < 5.00 throughout. Besides, the 50% cytotoxic concentration (CC50) in series [1] and in series [3] was > 10 µM in each case.

`FC(F)(F)c1ccc2nccc(Nc3ccc(Cl)cc3)c2c1`: the negative-log EC50 (pEC50) in the series on dengue virus type 2 was 5.14; in series [2], 5.72. The CC50 in series [1] and in series [3] was > 10 µM in each case.

As to `FC(F)(F)c1ccc2nccc(Nc3cccc(Cl)c3)c2c1`, the negative-log EC50 (pEC50) is 5.10 in the series on dengue virus type 2 and 5.32 in series [2]. The CC50 in series [1] and in series [3] was > 10 µM in each case.

As to `COc1ccc(OC)c(Nc2ccnc3ccc(C(F)(F)F)cc23)c1`, the pEC50 is 6.60 in the series with dengue virus type 2 and 5.77 in series [2]. Also, the CC50 in series [1] and in series [3] was > 10 µM each time.

As to `CS(=O)(=O)c1cccc(Nc2ccnc3ccc(C(F)(F)F)cc23)c1`, the negative-log EC50 (pEC50) (in the series on dengue virus type 2; in series [2]) was < 5.00 each time. Also, the 50% cytotoxic concentration (CC50) in series [1] and in series [3] was > 10 µM each time.

With `Fc1cc(Nc2ccnc3ccc(C(F)(F)F)cc23)ccc1Cl`, the pEC50 in the series with dengue virus type 2 was 5.39; in series [2] it was 5.77. For the same compound, the 50% cytotoxic concentration (CC50) in series [1] and in series [3] was > 10 µM throughout.

With `N#Cc1ccc(Nc2ccnc3ccc(C(F)(F)F)cc23)cc1`, the pEC50 was 5.01 in the series on dengue virus type 2 and < 5.00 in series [2]. Also, the 50% cytotoxic concentration (CC50) in series [1] and in series [3] was > 10 µM throughout.

In the case of `Fc1cc(Cl)cc(Nc2ccnc3ccc(C(F)(F)F)cc23)c1`, the negative-log EC50 (pEC50) was 5.03 in the series with dengue virus type 2 and 5.24 in series [2]. Further, the half-maximal cytotoxic concentration (CC50) in series [1] and in series [3] was > 10 µM throughout.

In the case of `COc1ccc(Nc2ccnc3ccc(C(F)(F)F)cc23)c(OC)c1`, the negative logarithm of the EC50 (pEC50) in the series with dengue virus type 2 is < 5.00; in series [2] it was 5.47. Besides, the CC50 in series [1] and in series [3] was > 10 µM each time.

For the compound `Fc1ccc(Nc2ccnc3ccc(C(F)(F)F)cc23)cc1F`, the pEC50 (in the series on dengue virus type 2; in series [2]) was < 5.00 each time. In addition, the CC50 in series [1] and in series [3] was > 10 µM each time.

As for `Fc1ccccc1Nc1ccnc2ccc(C(F)(F)F)cc12`, the pEC50 (in the series on dengue virus type 2; in series [2]) was < 5.00 each time. Moreover, the CC50 in series [1] and in series [3] was > 10 µM each time.

`Fc1cccc(Nc2ccnc3ccc(C(F)(F)F)cc23)c1`: the pEC50 (in the series on dengue virus type 2; in series [2]) was < 5.00 each time. Besides, the CC50 in series [1] and in series [3] was > 10 µM throughout.

As to `FC(F)(F)c1ccc2nccc(Nc3ccccc3Cl)c2c1`, the pEC50 in the series on dengue virus type 2 is < 5.00; in series [2], 5.19. In addition, the half-maximal cytotoxic concentration (CC50) in series [1] and in series [3] was > 10 µM throughout.

For the compound `N#Cc1cccc(Nc2ccnc3ccc(C(F)(F)F)cc23)c1`, the pEC50 in the series on dengue virus type 2 is < 5.00; in series [2], 5.66. The CC50 in series [1] and in series [3] was > 10 µM each time.

On to `FC(F)(F)c1ccc2nccc(Nc3cccc(Br)c3)c2c1`, for which the negative-log EC50 (pEC50) with dengue virus type 2 is 5.21; in series [2], 5.64. In addition, the CC50 in series [1] and in series [3] was > 10 µM each time.

Take `FC(F)(F)c1ccc2nccc(Nc3cccc(I)c3)c2c1`: the pEC50 in the series with dengue virus type 2 is 5.21; in series [2] it was 5.85. Moreover, the CC50 in series [1] and in series [3] was > 10 µM in each case.

Consider `COc1ccc(Nc2ccnc3ccc(C(F)(F)F)cc23)cc1`, for which the pEC50 in the series on dengue virus type 2 was 5.11; in series [2], 6.06. Further, the CC50 in series [1] and in series [3] was > 10 µM each time.

As for `Fc1ccc(Nc2ccnc3ccc(C(F)(F)F)cc23)cc1`, the negative-log EC50 (pEC50) (in the series with dengue virus type 2; in series [2]) was < 5.00 in each case. For the same compound, the 50% cytotoxic concentration (CC50) in series [1] and in series [3] was > 10 µM each time.

On to `COc1cc(Nc2ccnc3ccc(C(F)(F)F)cc23)cc(OC)c1OC`, for which the 50% cytotoxic concentration (CC50) in series [1] and in series [3] was > 10 µM in each case. For the same compound, the pEC50 in series [2] was 5.80.

`C#Cc1cccc(Nc2ncnc3cc(OCCOC)c(OCCOC)cc23)c1` [ERLOTINIB]: the pEC50 in series [2] was < 4.70.
